Values joined by “and” are separate entries in the source; they are usually repeats but may differ in a detail not shown here. Equal entries are not always repeated. Where two headings read alike, the source gives them in different places.
Experiments:
[1] = tested on: Pyricularia oryzae (PYRIOR); type: in vivo; conditions: 100 ppm foliar spray on rice; inoculated one day after chemical application (Prot)
[2] = tested on: Uncinula necator (UNCINE); assay: foliar fungicide test on vines (Example 18); type: in vivo; conditions: 100 ppm foliar spray on vines; for UNCINE Erad, PRCO (Percentage Reduction from Control): inoculated one day before chemical application (Erad)
[3] = tested on: Puccinia recondita (PUCCRT); assay: foliar fungicide test on wheat (Example 18); type: in vivo; conditions: 100 ppm foliar spray on wheat; inoculated one day after chemical application (Prot)
[4] = tested on: peach potato aphids (Myzus persicae); assay: whole plant or invertebrate; conditions: 72 h, read-out: mortality (score) Mp
Description: (§1) This Example illustrates the pesticidal/insecticidal properties of compounds of formula (I). The activities of individual compounds of formula (I) were determined using a variety of pests. The pests were treated with a liquid composition containing 500 parts per million (ppm) by weight of a compound of formula (I). Each composition was made by dissolving the compound in an acetone and ethanol (50:50 by volume) mixture and diluting the solution with water containing 0.05% by volume of a wetting agent, SYNPERONIC NP8, until the liquid composition contained the required concentration of the compound.
(§2) The test procedure adopted with regard to each pest was essentially the same and comprised supporting a number of the pests on a medium, which was usually a substrate, a host plant or a foodstuff on which the pests feed, and treating either or both the medium and the pests with a composition. Pest mortality was assessed usually between two and five days after treatment.
(§3) In each test against peach potato aphids (Myzus persicae), Chinese cabbage leaves were infested with aphids, the infested leaves were sprayed with a test composition and pest mortality was assessed after three days.

[5] = tested on: tobacco budworms (Heliothis virescens); assay: pesticidal test against tobacco budworms; conditions: liquid composition containing 500 ppm by weight of compound
Description: (§4) The activities of individual compounds of formula (I) were determined using a variety of pests. The pests were treated with a liquid composition containing 500 parts per million (ppm) by weight of a compound of formula (I). Each composition was made by dissolving the compound in an acetone and ethanol (50:50 by volume) mixture and diluting the solution with water containing 0.05% by volume of a wetting agent, SYNPERONIC NP8, until the liquid composition contained the required concentration of the compound.
as §2
(§5) Similar tests were conducted against, independently, two-spotted spider mites (Tetranychus urticae), fruit flies (Drosophila melanogaster), tobacco budworms (Heliothis virescens), diamond back moth (Plutella xylostella) and corn root worm (Diabrotica balteata).

[6] = tested on: diamond back moth (Plutella xylostella); assay: pesticidal test against diamond back moth; conditions: liquid composition containing 500 ppm by weight of compound
Description: as §4, §2, §5

[7] = tested on: fruit flies (Drosophila melanogaster); assay: pesticidal test against fruit flies; conditions: liquid composition containing 500 ppm by weight of compound
Description: as §4, §2, §5

[8] = tested on: corn root worm (Diabrotica balteata); assay: pesticidal test against corn root worm; conditions: liquid composition containing 500 ppm by weight of compound
Description: as §4, §2, §5

[9] = tested on: Phytophthora infestans lycopersici (PHYTIN); type: in vivo; conditions: 100 ppm foliar spray on tomatoes; inoculated one day after chemical application (Prot)
[10] = tested on: peach potato aphids (Myzus persicae); conditions: 500 ppm by weight; infested Chinese cabbage leaves sprayed; mortality assessed after three days
Description: as §1, §2, §3

[11] = tested on: two-spotted spider mites (Tetranychus urticae); conditions: liquid composition containing 500 ppm by weight of compound
Description: as §4, §2, §5

[12] = tested on: Phytophthora infestans lycopersici (PHYTIN); type: in vivo; conditions: 100 ppm foliar (Prot) application on tomatoes; inoculated 6 hours or one day after application
[13] = tested on: Plasmopara viticola (PLASVI); assay: foliar fungicide test on vines (Example 19); type: in vivo; conditions: 100 ppm foliar (Prot) application on vines; inoculated 6 hours or one day after application
[14] = tested on: Blumeria graminis f.sp. tritici (ERYSGT); assay: foliar fungicide test on wheat (Example 19); type: in vivo; conditions: 100 ppm foliar (Prot) application on wheat; inoculated 6 hours or one day after application
[15] = tested on: Venturia inaequalis (VENTIN); assay: foliar fungicide test on apples (Example 18); type: in vivo; conditions: 100 ppm foliar spray on apples; inoculated one day after chemical application (Prot)

Structure (SMILES) | mortality (score) Hv [5] | mortality (score) Px [6] | mortality (score) Dm [7] | mortality (score) Db [8] | mortality (score) Mp [10] | mortality (score) Tu [11] | further results
Cc1nsc(NC(=O)C(C)c2ccc3oc(CC(C)(C)C)nc3c2)c1Cl (stereo not shown) [Table 1 Compound 7, N-(4-chloro-3-methylisothiazol-5-yl)-2-[2-(2,2-dimethylpropyl)benzoxazol-5-yl]propionamide] | – | – | – | – | – | – | PYRIOR Prot, PRCO (Percentage Reduction from Control) [1]: 24; UNCINE Erad, PRCO (Percentage Reduction from Control) [2]: 100; PUCCRT Prot, PRCO (Percentage Reduction from Control) [3]: 85; mortality at 500 ppm [4]: 40 to 79%
Cc1nsc(NC(=O)C(C)c2ccc3oc(CC(F)(F)F)nc3c2)c1Cl (stereo not shown) [Table 1 Compound 8, N-(4-chloro-3-methylisothiazol-5-yl)-2-[2-(2,2,2-trifluoroethyl)benzoxazol-5-yl]propionamide] | 9 (9 indicates 80-100% mortality) | 9 (9 indicates 80-100% mortality) | 0 (represents less than 40% mortality) | 9 (9 indicates 80-100% mortality) | – | – | mortality at 500 ppm [4]: 40 to 79%
Cc1nsc(NC(=O)C(c2ccc3oc(CC(C)(C)C)nc3c2)C(C)C)c1Cl (stereo not shown) [Table 3 Compound 7] | – | – | – | – | – | – | UNCINE Erad, PRCO (Percentage Reduction from Control) [2]: 91; PUCCRT Prot, PRCO (Percentage Reduction from Control) [3]: 19; PHYTIN Prot, PRCO (Percentage Reduction from Control) [9]: 20
Cc1nsc(NC(=O)C(C)(F)c2ccc3oc(CC(C)(C)C)nc3c2)c1Cl (stereo not shown) [Table 6 Compound 7, N-(4-chloro-3-methylisothiazol-5-yl)-2-[2-(2,2-dimethylpropyl)benzoxazol-5-yl]-2-fluoropropionamide] | 9 (9 indicates 80-100% mortality) | – | 5 (5 indicates 40-79% mortality) | 9 (9 indicates 80-100% mortality) | – | – | mortality at 500 ppm [4]: 80 to 100%
Cc1nsc(NC(=O)C(O)c2ccc3oc(CC(C)(C)C)nc3c2)c1Cl (stereo not shown) [Table 7 Compound 7] | – | 9 (9 indicates 80-100% mortality) | 9 (9 indicates 80-100% mortality) | – | 0 (represents less than 40% mortality) | 9 (9 indicates 80-100% mortality) | –
Cc1nsc(NC(=O)C(=O)c2ccc3oc(CC(C)(C)C)nc3c2)c1Cl [Table 10 Compound 7] | – | 9 (9 indicates 80-100% mortality) | – | – | 9 (9 indicates 80-100% mortality) | 0 (represents less than 40% mortality) | –
C=C(C(=O)Nc1snc(C)c1Cl)c1ccc2oc(CC(C)(C)C)nc2c1 [Table 11 Compound 7] | – | – | – | – | – | – | PYRIOR Prot, PRCO (Percentage Reduction from Control) [1]: 66; UNCINE Prot, PRCO (Percentage Reduction from Control) ([2]; inoculated one day after chemical application (Prot)): 73; PUCCRT Prot, PRCO (Percentage Reduction from Control) [3]: 27; PHYTIN Prot, PRCO (Percentage Reduction from Control) [9]: 50
COC=C(C(=O)Nc1snc(C)c1Cl)c1ccc2oc(CC(C)(C)C)nc2c1 [Table 13 Compound 7] | – | 0 (represents less than 40% mortality) | 0 (represents less than 40% mortality) | – | 9 (9 indicates 80-100% mortality) | – | PHYTIN Prot, PRCO (Percentage Reduction from Control) [12]: 100; PLASVI Prot, PRCO (Percentage Reduction from Control) [13]: 100
Cc1nsc(NC(=O)C(=CN(C)C)c2ccc3oc(CC(C)(C)C)nc3c2)c1Cl [Table 14 Compound 7, N-(4-chloro-3-methylisothiazol-5-yl)-α-[(dimethylamino)methylene]-[2-(2,2-dimethylpropyl)benzoxazol-5-yl]acetamide] | – | – | – | – | – | 9 (9 indicates 80-100% mortality) | PYRIOR Prot, PRCO (Percentage Reduction from Control) [1]: 92; UNCINE Erad, PRCO (Percentage Reduction from Control) [2]: 100; PUCCRT Prot, PRCO (Percentage Reduction from Control) [3]: 98; ERYSGT Prot, PRCO (Percentage Reduction from Control) [14]: 83; mortality at 500 ppm [4]: 80 to 100%; PHYTIN Prot, PRCO (Percentage Reduction from Control) [9]: 0; VENTIN Prot, PRCO (Percentage Reduction from Control) [15]: 85
CCNC=C(C(=O)Nc1snc(C)c1Cl)c1ccc2oc(CC(C)(C)C)nc2c1 [Table 15 Compound 7, N-(4-chloro-3-methylisothiazol-5-yl)-α-[(ethylamino)methylene]-[2-(2,2-dimeth-ylpropyl)benzoxazol-5-yl]acetamide] | – | – | – | – | – | 9 (9 indicates 80-100% mortality) | PYRIOR Prot, PRCO (Percentage Reduction from Control) [1]: 57; UNCINE Erad, PRCO (Percentage Reduction from Control) [2]: 100; PUCCRT Prot, PRCO (Percentage Reduction from Control) [3]: 100; mortality at 500 ppm [4]: 80 to 100%; VENTIN Prot, PRCO (Percentage Reduction from Control) [15]: 53
Cc1nsc(NC(=O)C(=CNCc2ccc(Cl)cc2)c2ccc3oc(CC(C)(C)C)nc3c2)c1Cl [Table 19 Compound 7] | – | – | – | – | 5 (5 indicates 40-79% mortality) and 9 (9 indicates 80-100% mortality) | 9 (9 indicates 80-100% mortality) | –
Cc1nsc(NC(=O)C(CC#N)c2ccc3oc(CC(C)(C)C)nc3c2)c1Cl (stereo not shown) [Table 20 Compound 7] | 0 (represents less than 40% mortality) | 9 (9 indicates 80-100% mortality) | 0 (represents less than 40% mortality) | 0 (represents less than 40% mortality) | 5 (5 indicates 40-79% mortality) | 9 (9 indicates 80-100% mortality) | PHYTIN Prot, PRCO (Percentage Reduction from Control) [12]: 72; PLASVI Prot, PRCO (Percentage Reduction from Control) [13]: 100
Cc1nsc(NC(=O)C(SC(C)C)c2ccc3oc(CC(C)(C)C)nc3c2)c1Cl (stereo not shown) [Table 22 Compound 7] | – | – | – | – | 0 (represents less than 40% mortality) | 9 (9 indicates 80-100% mortality) | –
CC(=O)OCC(C(=O)Nc1snc(C)c1Cl)c1ccc2oc(CC(C)(C)C)nc2c1 (stereo not shown) [Table 28 Compound 7] | 9 (9 indicates 80-100% mortality) | – | 0 (represents less than 40% mortality) | 0 (represents less than 40% mortality) | 5 (5 indicates 40-79% mortality) | – | ERYSGT Prot, PRCO (Percentage Reduction from Control) [14]: 98; PLASVI Prot, PRCO (Percentage Reduction from Control) [13]: 97
CCOC(=O)CNN=C(C(=O)Nc1snc(C)c1Cl)c1ccc2oc(CC(C)(C)C)nc2c1 [Table 30 Compound 7] | – | – | – | – | 9 (9 indicates 80-100% mortality) | – | ERYSGT Prot, PRCO (Percentage Reduction from Control) [14]: 100
CCc1nsc(NC(=O)C(C)c2ccc3sc(CC(C)C)nc3c2)c1Cl (stereo not shown) [Table 39 Compound 86, N-(4-chloro-3-ethylisothiazol-5-yl)-2-[2-(2-methylpropyl)benzothiazol-5-yl]propionamide] | 9 (9 indicates 80-100% mortality) | 9 (9 indicates 80-100% mortality) | 0 (represents less than 40% mortality) | 9 (9 indicates 80-100% mortality) | – | – | mortality at 500 ppm [4]: 40 to 79%
CCc1nsc(NC(=O)C(C)c2ccc3sc(CC(C)(C)C)nc3c2)c1Cl (stereo not shown) [Table 39 Compound 87] | 9 (9 indicates 80-100% mortality) | 9 (9 indicates 80-100% mortality) | 0 (represents less than 40% mortality) | 9 (9 indicates 80-100% mortality) | 0 (represents less than 40% mortality) | – | –
CCOCN(C(=O)C(C)c1ccc2sc(CC(C)(C)C)nc2c1)c1snc(CC)c1Cl (stereo not shown) [Table 39 Compound 157] | 9 (9 indicates 80-100% mortality) | 9 (9 indicates 80-100% mortality) | 0 (represents less than 40% mortality) | 9 (9 indicates 80-100% mortality) | 9 (9 indicates 80-100% mortality) | – | –
Cc1nsc(NC(=O)C(F)c2ccc3sc(CC(C)(C)C)nc3c2)c1Cl (stereo not shown) [Table 42 Compound 7] | 9 (9 indicates 80-100% mortality) | 5 (5 indicates 40-79% mortality) | 9 (9 indicates 80-100% mortality) | 9 (9 indicates 80-100% mortality) | 9 (9 indicates 80-100% mortality) | – | –
CCc1nsc(NC(=O)C(F)c2ccc3sc(CC(C)(C)C)nc3c2)c1Cl (stereo not shown) [Table 42 Compound 87] | 9 (9 indicates 80-100% mortality) | 9 (9 indicates 80-100% mortality) | 9 (9 indicates 80-100% mortality) | 9 (9 indicates 80-100% mortality) | 9 (9 indicates 80-100% mortality) | – | –
CCOCN(C(=O)/C=C/c1ccc2oc(CC(C)(C)C)nc2c1)c1snc(C)c1Cl [Table 81 Compound 77] | 0 (represents less than 40% mortality) | 0 (represents less than 40% mortality) | 0 (represents less than 40% mortality) | 9 (9 indicates 80-100% mortality) | 0 (represents less than 40% mortality) | 0 (represents less than 40% mortality) | –
